Data: US5578639A, “PLA2 inhibitors and their use for inhibition of intestinal cholesterol absorption” (Warner-Lambert Company, priority 1995, dated 1996)
Like-named read-outs stand apart in the source and are kept apart here.

Key:
porcine pancreatic PLA2 = biological target: T1, porcine pancreatic PLA2 (Sus scrofa, UniProt P00592); assay: Fluorescence assay of porcine pancreatic PLA2 inhibition in vitro; type: biochemical
T1 construct: purchased Sigma Chemical Company (St. Louis, Mo.); host or cells: porcine pancreas
Text: The IC50 values for inhibition of porcine pancreatic PLA2, in vitro, are included for comparison with the in vivo activities.
A sensitive fluorescence method was used to measure the activity of pancreatic phospholipase A2 (PLA2) in vitro. PLA2 hydrolyzes the ester bond linking fatty acids to the sn-2 position in glycerophospholipids. Several types of PLA2 exist, including those isolated from venoms, synovial fluid, platelets, immunoactive cell types and the pancreas. The pancreatic PLA2 was the subject of this experiment because of its fundamental role in promoting lipid absorption in the intestine.
PLA2 activity was detected by the loss of pyrene excimer fluorescence that occurs when (1-pyrenyl)decanoic acid is hydrolysed from the sn-2 position of 1,2-bis-(1-pyrenedecanoyl)sn-glycero-3-phosphocholine ((P10)2 PC) by the action of PLA2. The use of similar pyrene-labeled PC substrates to detect PLA2 activity has been described previously (Radvanyi F., Jordan L., Russo-Marie F., Bon C., "A sensitive and continuous fluorometric assay for phospholipase A2 using pyrene-labeled phospholipids in the presence of serum albumin." Anal. Biochem., 177:103-109 (1989)). The full photophysical basis for the assay is described elsewhere (Birks J. B., "Photophysics of Aromatic Molecules," Wiley Interscience, New York, pp 301-371 (1970)).
In brief, pyrene excimers are formed by the complexation of one pyrene moiety in the ground-state with one pyrene moiety in the excited state to form an excited-state dimer (excimer) which fluoresces at longer wavelengths (475 nm emission maximum) than the wavelength range in which excited-state pyrene monomers fluoresce (370-400 nm). Excimer formation is dependent on the concentration of pyrene moieties. (P10)2 PC emits excimer fluorescence almost exclusively due to the fixed juxtaposition of the pyrene chromophores. The substrate concentration is sufficiently dilute so that excimer formation between the products of PLA2 action, namely lysoPY10PC and the (1-pyrenyl)decanoic acid, is insignificant.
In general, this assay scheme should have been applicable to the study of any type of PLA2. However, since pancreatic PLA2 is unique from the other PLA2 's in that it operates almost exclusively against micellized PC, the PC substrate in this assay was micellized with 1 mM deoxycholic acid. The PC component of the micelles consisted of 5 μM (P10)2 PC substrate diluted with a 99-fold excess (495 μM) of 1-oleyl-2-palmityl phosphatidylcholine (OPPC). The OPPC was inert to PLA2 hydrolysis because it contained ether-linked fatty alkyl chains in place of the ester-linked fatty acyl chains of normal PC. OPPC was included to 1) dilute the micellar (P10)2 PC concentration thereby minimizing intermolecular excimer formation, and 2) preserve the integrity of the micelles against the action of PLA2 since nonspecific micelle disruption could lead to nonlinear kinetics and fluorescence changes independent of lipolysis.
Phospholipase A2 (porcine pancreas), bovine serum albumin (BSA) (fraction V, essentially fatty acid-free) and sodium deoxycholate were obtained from Sigma Chemical Company, (St. Louis, Mo.). 1-Oleyl-2-palmityl-DL-phosphatidylcholine (OPPC) was ordered from Serdary Research Laboratories, Inc. (London, Ont., Canada). 1,2-Bis-(1-pyrenedecanoyl)-sn-glycero-3-phosphatidylcholine ((P10)2 PC) was obtained from Molecular Probes, Inc. (Eugene, Oreg.).
HEPES buffer (SHE) contained 150 mM NaCl, 20 mM HEPES (N-[2-hydroxyethyl]piperazine-N'-[2-ethanesulfonic acid]) and 1 mM EDTA (ethylenediamine tetraacetic acid) at pH 8.0.
1 mM (P10)2 PC in chloroform was prepared by adding 1 mL chloroform to a vial containing 1 mg of (P10)2 PC, as shipped by Molecular Probes. The actual concentration was determined spectrophotometrically by diluting 10 μL of the chloroform solution in 2 mL of ethanol. The absorbance spectrum of the ethanol solution was measured between 380 nm to 280 nm (Beckman DU-64). […]

plasma lipids = assay: Plasma lipids in cholesterol-fed rats after oral PLA2 inhibitor; type: in vivo; settings: 100 mg/kg oral gavage, about 8 hours after start of feeding
Experimental: Ultimately, agents that inhibit the absorption of dietary cholesterol should suppress postprandial increases in plasma cholesterol. This was tested with several. PLA2 inhibitors in cholesterol-fed rats. The general protocol consisted of preparing a carboxymethyl cellulose/Tween 20 dispersion of the compound of interest and administering it at a dose of 100 mg/kg by oral gavage to rats previously trained to meal-feed. Immediately following administration of the inhibitor, the rats were fed a lipid-rich meal of chow supplemented with cholesterol, peanut oil, and cholic acid.

PLA2 = settings: methyl-phosphatidic acid substrate; Jain et al. 1992; read-out: IC50 in "scooting-mode" assay; cited from earlier work
[1] = system: intestinal lipid absorption; assay: Lymph-fistula rats, diester and diether PC analogs; type: in vivo, rat
Text: The intestinal lipid absorption pathway was isolated in the rat by inserting an infusion cannula in the proximal duodenum and implanting a second cannula in the mesenteric lymph vessel to intercept the lipoprotein output from the intestine. This lymph-fistula rat model was used to investigate the effect of pancreatic PLA2 inhibition, in situ, on intestinal absorption of infused lipid emulsions. In a typical experiment, cannulae were implanted the day before the experimental infusion. Following surgery, the animals were infused (2.5 mL/hr) with isotonic saline containing dextrose to flush the GI tract and obtain basal levels of lymphatic lipid output. On the day of the experiment, infusion of the dextrose recovery solution was continued for 1 hour to collect a basal lymph fraction. At the start of the next hour, the intake of the duodenal infusion cannula was switched to a lipid emulsion of isotonic saline containing safflower oil (59 mM), cholesterol (5.2 mM), PC (3.3 mM) and taurocholic acid (1.9 mM). One hour lymph fractions were collected until the end of the experiment. The lipid content (mass) of lymph fractions was determined by HPLC with a mass-sensitive, evaporative light-scattering detector.
PC analogs in which the normal acyl chains are replaced by alkyl carbon chains linked to the glycerol backbone by ether bonds have physical-chemical properties similar to conventional diester PC molecules but are not hydrolyzable by PLA2. To determine the significance of micellar PC hydrolysis in intestinal lipid absorption, a comparison was made of the mesenteric lymph lipid output from rats infused with lipid microemulsions prepared with 1,2-dipalmitoyl PC (DPPC(ester)) or 1,2-dipalmityl PC (DPPC(ether)) as the PC constituent. […] The total lymphatic CE output over the 12-hour period of DPPC(ether) infusion was only 47% of total CE output obtained with the DPPC(ester) emulsion.

Caco-2 cells [2] = assay: Caco-2 phospholipase A2-dependent cholesterol absorption, time course; type: cell-based, human
cholesterol absorption = settings: Rampone and Long 1977; cited from earlier work
Caco-2 cells [3] = assay: Caco-2 lipid absorption versus micellar phospholipid composition; type: cell-based, human
Experimental: Caco-2 cells were used as a tissue culture model of the human intestinal epithelium to compare the effects of phosphatidylcholine and lysophosphatidylcholine on lipid absorption and the subsequent re-esterification and secretion of micelle-derived lipids.
Caco-2 cell monolayers, grown on micropore membranes separating apical and basolateral culture solutions, were incubated with taurocholate, mixed-lipid micelles composed of 5 mM taurocholic acid, 300 μM monooleoylglycerol, 500 μM [^3 H]oleic acid, 100 μM [^14 C]cholesterol, and 200 μM phospholipid consisting of various proportions of 1-palmitoyl-2-oleoyl phosphatidylcholine and 1-palmitoyl lysophosphatidylcholine. The micelles were added to the apical side of the cell monolayers. Phospholipid-free micelles were also tested for comparison. At the end of 6 hours of incubation, the radiolabeled lipid content of the cells and in the basolateral media were determined. Phospholipid content strongly influenced the absorption and metabolism of cholesterol (FIGS. 1, 2) but had only minimal effects on fatty acid uptake and metabolism (FIG. 3). Caco-2 monolayers incubated with micelles containing only phosphatidylcholine as the phospholipid absorbed 65% less [^14 C]cholesterol than cell monolayers incubated with phospholipid-free micelles.

serum cholesterol = settings: neomycin 1.5-2 g/day; β-sitosterol 3-50 g/day; cited from earlier work
[4] = porcine pancreatic PLA2, in vitro, read-out: In Vitro IC50 (porc. panc. PLA2)

T1 sequence (P00592 23-146): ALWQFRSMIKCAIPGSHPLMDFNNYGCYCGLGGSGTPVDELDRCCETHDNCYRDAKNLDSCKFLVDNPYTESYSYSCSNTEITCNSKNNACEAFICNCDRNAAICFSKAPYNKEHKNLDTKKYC

## 1-[4,4-bis(4-fluorophenyl)butyl]-3-(3-methoxyphenyl)-3-methyl-pyrrolidine [Compound C]
Porcine pancreatic PLA2; [4]
  IC50: 5.7 µM
Plasma lipids
  % Change in plasma lipids vs. Control: HDL Chol.: 38%
  % Change in plasma lipids vs. Control: Total Chol.: -30%
  % Change in plasma lipids vs. Control: non-HDL Chol.: -49%

## CCCCCCC(c1ccc(O)c(C)c1)c1ccc(O)c(C)c1 [Compound A, 4,4'-heptylidenebis-2-methyl-phenol]
Porcine pancreatic PLA2; [4]
  IC50: 2.2 µM
Plasma lipids
  % Change in plasma lipids vs. Control: HDL Chol.: 1%
  % Change in plasma lipids vs. Control: TG: -11%
  % Change in plasma lipids vs. Control: Total Chol.: -24%
  % Change in plasma lipids vs. Control: non-HDL Chol.: -32%

## CCCCCCCC/C=C\CCCCCCCC(N)=O [Compound E, (Z)-9-octadecen-amide, reference compound]
Porcine pancreatic PLA2; FIG. 12, (P10)2 PC substrate, read-out: IC50 in the fluorescence assay
  IC50: 3 µM
Porcine pancreatic PLA2; [4]
  IC50: 2.4 µM
PLA2
  IC50: 0.1 µM
Plasma lipids
  % Change in plasma lipids vs. Control: HDL Chol.: 2%
  % Change in plasma lipids vs. Control: TG: -35%
  % Change in plasma lipids vs. Control: Total Chol.: -42%
  % Change in plasma lipids vs. Control: non-HDL Chol.: -56%

## Cc1ccc(Nc2cccc(Cl)c2)c(/C=C/C(=O)O)c1 [Compound F, 2-(M-chloroanilino)-5-methyl-trans-cinnamic acid]
Porcine pancreatic PLA2; [4]
  IC50: 8.6 µM
Plasma lipids
  % Change in plasma lipids vs. Control: HDL Chol.: 2%
  % Change in plasma lipids vs. Control: TG: -5%
  % Change in plasma lipids vs. Control: Total Chol.: -15%
  % Change in plasma lipids vs. Control: non-HDL Chol.: -20%

## Cc1ccc(Nc2ccccc2F)c(/C=C/C(=O)O)c1 [Compound G, 2-(O-fluoroanilino)-5-methyl-trans-cinnamic acid]
Porcine pancreatic PLA2; [4]
  IC50: 4.6 µM
Plasma lipids
  % Change in plasma lipids vs. Control: HDL Chol.: 15%
  % Change in plasma lipids vs. Control: TG: -24%
  % Change in plasma lipids vs. Control: Total Chol.: -12%
  % Change in plasma lipids vs. Control: non-HDL Chol.: -21%

## CCCCCCCCCCCCCCCCOCC(COP(=O)([O-])OCC[N+](C)(C)C)OCCCCCCCCCCCCCCCC (stereo not drawn) [DPPC(ether), 1,2-dipalmityl PC]
[1]; 12-hour infusion
  total lymphatic CE output relative to DPPC(ester): 47%
[1]; after initiation of lipid emulsion infusion
  time until lymphatic cholesteryl ester output rose above basal: 8 h
[1]; following initiation of lipid infusion
  onset of rise in lymphatic TG and PC output: not delayed
[1]; infusion of lipid emulsion
  total lymphatic PC output relative to DPPC(ester): 75%
  total lymphatic TG output relative to DPPC(ester): 71%

## CCCCCCCCCCCCCCCC(=O)OCC(O)COP(=O)([O-])OCC[N+](C)(C)C (stereo not drawn) [lysophosphatidylcholine, 1-palmitoyl lysophosphatidylcholine]
Caco-2 cells [2]
  [3H]oleate-labeled PC synthesis relative to phospholipid-free micelles: slight decrease
Cholesterol absorption
  inhibition of cholesterol absorption by intestinal segments: no inhibition
Caco-2 cells [3]; 6 hours, lysophosphatidylcholine substituted for phosphatidylcholine
  reversal of PC effect on cholesterol absorption: reversed this effect, but only when the mole fraction of micellar lysophosphatidylcholine was greater than 50%

## CCCCCCCCCCCCCCCCOCC(COP(=O)([O-])OCC[N+](C)(C)C)OCCCCCCCCCCCCCCCC (stereo not drawn) [nonhydrolyzable phospatidylcholine]
[1]; FIG. 9, nonhydrolyzable phosphatidylcholine
  absorption of lipids into cells (figure legend): prevents absorption of lipids into cells

## CCCCCCCC/C=C\CCCCCCCC(=O)OC(COC(=O)CCCCCCCCCCCCCCC)COP(=O)([O-])OCC[N+](C)(C)C (stereo not drawn) [phosphatidylcholine, 1-palmitoyl-2-oleoyl phosphatidylcholine]
Caco-2 cells [3]; FIG. 1C, micelles with 50% or more of choline lipid as PC
  esterification of micellar [14C]cholesterol: reduced to an even greater extent
Caco-2 cells [3]; Homo sapiens, Caco-2, 6 h, read-out: [14C]cholesterol absorbed, reduction vs. phospholipid-free micelles
  inhibition at 200 µM: 65%
Caco-2 cells [3]; PC-containing micelles
  ACAT activity in cells: diminished

## Neomycin
Serum cholesterol
  reductions in serum cholesterol levels: up to 25%
